Results as given in US20210238225A1, “PEPTIDOMIMETIC INHIBITORS OF THE PEPTIDYL-PROLYL CIS/TRANS ISOMERASE (PIN1)” (DANA-FARBER CANCER INSTITUTE, INC., priority 2018, published 2021).
Non-standard residues stand in square brackets, D forms with d. Residues, ends and D or L forms follow the SMILES beside them. *: point of attachment. Phe(4-F) = N[C@@H](Cc1ccc(F)cc1)C(=O)O; 2Nal = N[C@@H](Cc1ccc2ccccc2c1)C(=O)O; NH(4-Me-benzyl) = Cc1ccc(CN*)cc1; Cit = NC(=O)NCCC[C@H](N)C(=O)O; Pip = O=C(O)[C@@H]1CCCCN1; ClAc = O=C(CCl)*

Columns and labels:
Pin1 (GST-Pin1) = Pin1 (GST-Pin1) (Homo sapiens, UniProt Q13526); assay: Fluorescence polarization (FP) assay, binding to Pin1; settings: competition with fluorescein-labeled peptide probe; 12 hours pre-incubation at 4° C.; Kenakin Ki equation; read-out: Ki, μM (FP Assay)
Pin1 [1] = target: T1, Pin1 (Homo sapiens, UniProt Q13526); assay: Cellular target engagement, live cell biotin competition assay in TNBC MDA-MB-231 cells; type: cell-based; design: endogenous in cells; host or cells: MDA-MB-231; settings: TNBC MDA-MB-231 cells, 5 hours treatment; concentration under E7
Method: TNBC MDA-MB-231 cells were plated in 10 cm plates with 2.5 million cells per plate in 6 mL of media. The day after plating, cells were treated with the indicated concentrations of compound 18 for 5 hours. The cells were washed 2× with 0.9% NaCl (1 mL per 10 cm plate), and collected by scraping with a cell scraper. Cells were lysed in lysis buffer (50 mM Hepes pH 7.5, 150 mM NaCl, 1 mM EDTA, 10% v/v glycerol, 0.5% v/v […], protease inhibitors (Roche)) using 210 μL of cell lysis buffer per 10 cm plate of cells. After clarifying by centrifugation (14,000 rpm for 15 min at 4° C.), 5 μL of each lysate sample was combined with 5 μL of 2× LDS+10% β-mercaptoethanol, boiled for 5 minutes, and set aside for the input loading control (later to be loaded directly in the gel). Then, 200 μL of each lysate was then incubated with 1 μM of compound 2-32 (biotin probe compound) for 1 hour at 4° C. Lysates were then incubated with streptavidin agarose resin (30 μL of 1:1 beads: lysis buffer slurry) (Thermo Scientific™, cat. #20349) for 2 hours at 4° C. Beads were washed 4 times with 500 μL of washing buffer (50 mM Hepes, pH7.5, 10 mM NaCl, 1 mM EDTA, 10% glycerol), then pelleted by centrifugation and dried. The beads were then boiled at 95° C. for 5 minutes in 30 μL of 2× LDS+10% β-mercaptoethanol. Lysates were probed for specified proteins by western blotting using the Bolt system (Life Technologies™).

Pin1 [2] = target: T1, Pin1; assay: Lysate target engagement (pull down with biotinylated probes; competition assay); type: binding; design: endogenous in cells; host or cells: MDA-MB-231; settings: for Lysate Target Engagement?: TNBC-MDA-MB-231 lysate, biotin/dtb probes: pull down, others: competition, concentration under E5; for Lysate Target Engagement? concentration stated for the engagement or pull down: read with the E4 line of the same compound (complete, partial, probe pull down)
Method: (§1) TNBC-MDA-MB-231 cells were lysed in lysis buffer (50 mM Hepes pH 7.5, 150 mM NaCl, 1 mM ethylenediaminetetraacetic acid (EDTA), 10% v/v glycerol, 0.5% v/v NP-40, protease inhibitors (Roche)). After clarifying by centrifugation (14,000 rpm for 15 min at 4° C.), lysates were incubated with the indicated concentrations of candidate compound for 1 hour at 4° C. (500 μg of protein per sample, as determined by BCA). Lysates were then incubated with streptavidin agarose resin (30 μL of 1:1 beads: lysis buffer slurry) (Thermo Scientific™, cat. #20349) for 2 hours at 4° C. Beads were washed 4 times with 500 μL of washing buffer (50 mM Hepes, pH 7.5, 10 mM NaCl, 1 mM EDTA, 10% glycerol), then pelleted by centrifugation and dried. The beads were then boiled at 95° C. for 5 minutes in 30 μL of 2× LDS+10% β-mercaptoethanol. Lysates were probed for specified proteins by western blotting using the Bolt system (Life Technologies™).
as §1, with “mM EDTA,” for “mM ethylenediaminetetraacetic acid (EDTA),”, “by centrifugation,” for “by centrifugation (14,000 rpm for 15 min at 4° C.),”, “were pre-incubated” for “were incubated”, “of” for “of candidate”, “compound 18 overnight” for “compound for 1 hour”, “BCA). The lysates were then incubated with 1 μM of compound 2c (desthiobiotin probe) for 1 hour at 4° C.” for “BCA).”

T1 sequence (Q13526 whole entry): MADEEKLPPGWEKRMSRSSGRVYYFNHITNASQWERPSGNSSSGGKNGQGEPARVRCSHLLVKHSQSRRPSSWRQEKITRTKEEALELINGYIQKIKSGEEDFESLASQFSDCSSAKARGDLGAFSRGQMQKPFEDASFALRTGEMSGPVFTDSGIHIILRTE
Sequence of Pin1 (GST-Pin1) (Q13526 whole entry): as above

Row | Lysate Target Engagement? concentration stated for the engagement or pull down (Pin1 [2]) | SMILES | Ki (Pin1 (GST-Pin1)) [µM] | Cellular Target Engagement? (Pin1 [1]) | Lysate Target Engagement? (Pin1 [2])
1 | by 10 μM | COC(=O)CC[C@H](NC(=O)CCl)C(=O)N1CCCC[C@H]1C(=O)N[C@@H](Cc1ccc2ccccc2c1)C(=O)N[C@@H](CCCNC(N)=O)C(N)=O [Compound 2-11, Methyl (S)-5-((S)-2-(((S)-1-(((S)-1-amino-1-oxo-5-ureidopentan-2-yl)amino)-3-(naphthalen-2-yl)-1-oxopropan-2-yl)carbamoyl)piperidin-1-yl)-4-(2-chloroacetamido)-5-oxopentanoate] (ClAc-E(OMe)[Pip][2Nal][Cit]-NH2) | 0.06 | No | Yes-complete
2 | at 5 μM | NC(=O)NCCC[C@H](NC(=O)[C@H](Cc1c[nH]c2ccccc12)NC(=O)[C@@H]1CCCCN1C(=O)[C@H](CCC(=O)O)NC(=O)CCl)C(N)=O [Compound 2b-18, (S)-5-((S)-2-(((S)-1-(((S)-1-Amino-1-oxo-5-ureidopentan-2-yl)amino)-3-(1H-indol-3-yl)-1-oxopropan-2-yl)carbamoyl)piperidin-1-yl)-4-(2-chloroacetamido)-5-oxopentanoic acid] (ClAc-E[Pip]W[Cit]-NH2) |  | No | Yes-Complete
3 |  | COC(=O)CC[C@H](NC(=O)CCl)C(=O)N1CCCC[C@H]1C(=O)N[C@@H](Cc1c[nH]c2ccccc12)C(=O)N[C@@H](Cc1ccc(O)cc1)C(=O)NCc1ccc(C)cc1 [Compound 11-1, Methyl (S)-4-(2-chloroacetamido)-5-((S)-2-(((S)-1-(((S)-3-(4-hydroxyphenyl)-1-((4-methyl-benzyl)amino)-1-oxopropan-2-yl)amino)-3-(1H-indol-3-yl)-1-oxopropan-2-yl)carbamoyl)piperidin-1-yl)-5-oxopentanoate] | 0.176 | No | No
4 |  | COC(=O)CC[C@H](NC(=O)CCl)C(=O)N1CCCC[C@H]1C(=O)N[C@@H](Cc1c[nH]c2ccccc12)C(=O)N[C@@H](Cc1c[nH]c2ccccc12)C(=O)NCc1ccc(C)cc1 [Compound 11-2, Methyl (S)-5-((S)-2-(((S)-1-(((S)-3-(1H-indol-3-yl)-1-((4-methylbenzyl)amino)-1-oxopropan-2-yl)amino)-3-(1H-indol-3-yl)-1-oxopropan-2-yl)carbamoyl)piperidin-1-yl)-4-(2-chloroacetamido)-5-oxopentanoate] (ClAc-E(OMe)[Pip]WW-{NH(4-Me-benzyl)}) | > 10 | No | No

Row | SMILES | Lysate Target Engagement? concentration stated for the engagement or pull down (Pin1 [2]) | Ki (Pin1 (GST-Pin1)) [µM] | Cellular Target Engagement? (Pin1 [1]) | Lysate Target Engagement? (Pin1 [2])
5 | NC(=O)[C@H](Cc1ccc(F)cc1)NC(=O)[C@H](Cc1c[nH]c2ccccc12)NC(=O)[C@@H]1CCCCN1C(=O)[C@H](CCC(=O)O)NC(=O)CCl [Compound 2-27, (S)-5-((S)-2-(((S)-1-(((S)-1-Amino-3-(4-fluorophenyl)-1-oxopropan-2-yl)amino)-3-(1H-indol-3-yl)-1-oxopropan-2-yl)carbamoyl)piperidin-1-yl)-4-(2-chloroacetamido)-5-oxopentanoic acid] (ClAc-E[Pip]W[Phe(4-F)]-NH2) | at 10 μM | 0.075 | No | Yes-partial
